Results from US6737383B1, “Herbicidal oxadiazolidines” (priority 1999, dated 2004).

Key:
corn = experiment: Test B pre/postemergence corn; format: in vivo, Zea mays
In short: (§1)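 Herbicidal effect was estimated by eye on a ten-point control scale after plants spent twelve to sixteen days in a greenhouse following soil or foliar treatment. Foliar sprays targeted plants at one to four leaves; all doses were formulated in a non-phytotoxic solvent with surfactant.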

velvetleaf = experiment: Test B pre/postemergence velvetleaf; format: in vivo, Abutilon theophrasti
In short: as §1

wheat = experiment: Test B pre/postemergence wheat; format: in vivo, Triticum aestivum
In short: as §1

purple nutsedge = experiment: Test B pre/postemergence purple nutsedge; format: in vivo, Cyperus rotundus
In short: as §1

rape = experiment: Test B pre/postemergence rape; format: in vivo, Brassica napus
In short: as §1

surinam grass = experiment: Test B pre/postemergence surinam grass; format: in vivo, Brachiaria decumbens
In short: as §1

blackgrass = experiment: Test B pre/postemergence blackgrass; format: in vivo, Alopecurus myosuroides
In short: as §1

morningglory = experiment: Test B pre/postemergence morningglory; format: in vivo, Ipomoea hederacea
In short: as §1

cocklebur = experiment: Test B pre/postemergence cocklebur; format: in vivo, Xanthium strumarium
In short: as §1

wild oat = experiment: Test B pre/postemergence wild oat; format: in vivo, Avena fatua
In short: as §1

soybean = experiment: Test B pre/postemergence soybean; format: in vivo, Glycine max
In short: as §1

giant foxtail = experiment: Test B pre/postemergence giant foxtail; format: in vivo, Setaria faberii
In short: as §1

pigweed = experiment: Test B pre/postemergence pigweed; format: in vivo, Amaranthus retroflexus
In short: as §1

crabgrass = experiment: Test B pre/postemergence crabgrass; format: in vivo, Digitaria sanguinalis
In short: as §1

sugar beet = experiment: Test B pre/postemergence sugar beet; format: in vivo, Beta vulgaris
In short: as §1

bedstraw = experiment: Test B pre/postemergence bedstraw; format: in vivo, Galium aparine
In short: as §1

[1] = Postemergence, Rate 62 g/ha, scale of 0 to 10, 0 is no effect, 10 is complete control
[2] = Postemergence, Rate 125 g/ha, scale 0 to 10, 0 is no effect, 10 is complete control
[3] = Postemergence, Rate 500 g/ha, scale of 0 to 10 where 0 is no effect and 10 is complete control
[4] = Preemergence, Rate 62 g/ha, scale 0 to 10 (0 no effect, 10 complete control)
[5] = Preemergence, Rate 125 g/ha, scale 0 to 10, 0 is no effect, 10 is complete control
[6] = Preemergence, Rate 500 g/ha, scale of 0 to 10 where 0 is no effect and 10 is complete control
[7] = Rate 250 g/ha, Postemergence, scale of 0 to 10 where 0 is no effect and 10 is complete control

SMILES: CC(=O)OCCCCn1c(=O)on(C(=O)N(c2ccccc2)C(C)C)c1=O [Compound 565]
- Corn plant response rating (corn; [1]): 0
- Corn plant response rating (corn; [2]): 0
- Plant response rating, Corn (corn; [3]): 0
- Corn plant response rating (corn; [4]): 0
- Corn plant response rating (corn; [5]): 0
- Corn plant response rating (0 to 10 scale) (corn; Preemergence, Rate 250 g/ha): 0
- Corn plant response rating (corn; [6]): 0
- Plant response rating, Corn (corn; [7]): 0
- Velvetleaf plant response rating (velvetleaf; [1]): 3
- Plant response rating, Velvetleaf (velvetleaf; [3]): 4
- Velvetleaf plant response rating (velvetleaf; [4]): 0
- Velvetleaf plant response rating (velvetleaf; [5]): 0
- Velvetleaf plant response rating (0 to 10 scale) (velvetleaf; Preemergence, Rate 250 g/ha): 0
- Velvetleaf plant response rating (velvetleaf; [6]): 0
- Plant response rating, Velvetleaf (velvetleaf; [7]): 4
- Wheat plant response rating (wheat; [1]): 0
- Plant response rating, Wheat (wheat; [3]): 0
- Wheat plant response rating (wheat; [4]): 0
- Wheat plant response rating (wheat; [5]): 0
- Wheat plant response rating (0 to 10 scale) (wheat; Preemergence, Rate 250 g/ha): 0
- Wheat plant response rating (wheat; [6]): 0
- Plant response rating, Wheat (wheat; [7]): 0
- Nutsedge plant response rating (purple nutsedge; [2]): 0
- Plant response rating, Nutsedge (purple nutsedge; [3]): 0
- Nutsedge plant response rating (purple nutsedge; [4]): 0
- Nutsedge plant response rating (purple nutsedge; [5]): 0
- Nutsedge plant response rating (0 to 10 scale) (purple nutsedge; Preemergence, Rate 250 g/ha): 0
- Nutsedge plant response rating (purple nutsedge; [6]): 0
- Plant response rating, Nutsedge (purple nutsedge; [7]): 0
- Rape plant response rating (rape; [1]): 0
- Rape plant response rating (rape; [2]): 0
- Plant response rating, Rape (rape; [3]): 0
- Rape plant response rating (rape; [4]): 0
- Rape plant response rating (rape; [5]): 0
- Rape plant response rating (0 to 10 scale) (rape; Preemergence, Rate 250 g/ha): 0
- Rape plant response rating (rape; [6]): 0
- Plant response rating, Rape (rape; [7]): 0
- B. signalgrass plant response rating (surinam grass; [1]): 0
- B. signalgrass plant response rating (surinam grass; [2]): 0
- Plant response rating, B. signalgrass (surinam grass; [3]): 0
- B. signalgrass plant response rating (surinam grass; [4]): 0
- B. signalgrass plant response rating (surinam grass; [5]): 0
- B. signalgrass plant response rating (0 to 10 scale, 0 is no effect, 10 is complete control) (surinam grass; Preemergence, Rate 250 g/ha): 0
- B. signalgrass plant response rating (surinam grass; [6]): 0
- Plant response rating, B. signalgrass (surinam grass; [7]): 0
- Blackgrass plant response rating (blackgrass; [1]): 0
- Blackgrass plant response rating (blackgrass; [2]): 0
- Plant response rating, Blackgrass (blackgrass; [3]): 0
- Blackgrass plant response rating (blackgrass; [4]): 0
- Blackgrass plant response rating (blackgrass; [5]): 0
- Blackgrass plant response rating (0 to 10 scale) (blackgrass; Preemergence, Rate 250 g/ha): 0
- Blackgrass plant response rating (blackgrass; [6]): 0
- Plant response rating, Blackgrass (blackgrass; [7]): 0
- Morningglory plant response rating (morningglory; [1]): 3
- Morningglory plant response rating (morningglory; [2]): 5
- Plant response rating, Morningglory (morningglory; [3]): 9
- Morningglory plant response rating (morningglory; [4]): 0
- Morningglory plant response rating (morningglory; [5]): 0
- Morningglory plant response rating (0 to 10 scale) (morningglory; Preemergence, Rate 250 g/ha): 0
- Morningglory plant response rating (morningglory; [6]): 0
- Plant response rating, Morningglory (morningglory; [7]): 7
- Cocklebur plant response rating (cocklebur; [1]): 0
- Cocklebur plant response rating (cocklebur; [2]): 0
- Plant response rating, Cocklebur (cocklebur; [3]): 2
- Cocklebur plant response rating (cocklebur; [4]): 0
- Cocklebur plant response rating (cocklebur; [5]): 0
- Cocklebur plant response rating (0 to 10 scale) (cocklebur; Preemergence, Rate 250 g/ha): 0
- Cocklebur plant response rating (cocklebur; [6]): 0
- Plant response rating, Cocklebur (cocklebur; [7]): 2
- Wild oats plant response rating (wild oat; [1]): 0
- Plant response rating, Wild oats (wild oat; [3]): 0
- Wild oats plant response rating (wild oat; [4]): 0
- Wild oats plant response rating (wild oat; [5]): 0
- Wild oats plant response rating (0 to 10 scale) (wild oat; Preemergence, Rate 250 g/ha): 0
- Wild oats plant response rating (wild oat; [6]): 0
- Plant response rating, Wild oats (wild oat; [7]): 0
- Soybean plant response rating (soybean; [1]): 2
- Plant response rating, Soybean (soybean; [3]): 3
- Soybean plant response rating (soybean; [4]): 0
- Soybean plant response rating (soybean; [5]): 0
- Soybean plant response rating (0 to 10 scale) (soybean; Preemergence, Rate 250 g/ha): 0
- Soybean plant response rating (soybean; [6]): 0
- Plant response rating, Soybean (soybean; [7]): 3
- Giant foxtail plant response rating (giant foxtail; [1]): 0
- Giant foxtail plant response rating (giant foxtail; [2]): 0
- Plant response rating, Giant foxtail (giant foxtail; [3]): 3
- Giant foxtail plant response rating (giant foxtail; [4]): 0
- Giant foxtail plant response rating (giant foxtail; [5]): 0
- Giant foxtail plant response rating (0 to 10 scale) (giant foxtail; Preemergence, Rate 250 g/ha): 0
- Giant foxtail plant response rating (giant foxtail; [6]): 2
- Plant response rating, Giant foxtail (giant foxtail; [7]): 0
- Redroot pigweed plant response rating (pigweed; [1]): 0
- Plant response rating, Redroot pigweed (pigweed; [3]): 6
- Redroot pigweed plant response rating (pigweed; [4]): 0
- Redroot pigweed plant response rating (pigweed; [5]): 0
- Redroot pigweed plant response rating (0 to 10 scale) (pigweed; Preemergence, Rate 250 g/ha): 0
- Redroot pigweed plant response rating (pigweed; [6]): 9
- Plant response rating, Redroot pigweed (pigweed; [7]): 6
- Crabgrass plant response rating (crabgrass; [1]): 0
- Crabgrass plant response rating (crabgrass; [2]): 0
- Plant response rating, Crabgrass (crabgrass; [3]): 3
- Crabgrass plant response rating (crabgrass; [4]): 0
- Crabgrass plant response rating (crabgrass; [5]): 0
- Crabgrass plant response rating (0 to 10 scale) (crabgrass; Preemergence, Rate 250 g/ha): 0
- Crabgrass plant response rating (crabgrass; [6]): 2
- Plant response rating, Crabgrass (crabgrass; [7]): 0
- Sugarbeets plant response rating (sugar beet; [1]): 0
- Plant response rating, Sugarbeets (sugar beet; [3]): 0
- Sugarbeets plant response rating (sugar beet; [4]): 0
- Sugarbeets plant response rating (sugar beet; [5]): 0
- Sugarbeets plant response rating (0 to 10 scale) (sugar beet; Preemergence, Rate 250 g/ha): 0
- Sugarbeets plant response rating (sugar beet; [6]): 0
- Plant response rating, Sugarbeets (sugar beet; [7]): 0
- Bedstraw plant response rating (bedstraw; [1]): 0
- Bedstraw plant response rating (bedstraw; [2]): 0
- Plant response rating, Bedstraw (bedstraw; [3]): 0
- Bedstraw plant response rating (bedstraw; [4]): 0
- Bedstraw plant response rating (bedstraw; [5]): 0
- Bedstraw plant response rating (0 to 10 scale) (bedstraw; Preemergence, Rate 250 g/ha): 0
- Bedstraw plant response rating (bedstraw; [6]): 0
